Assay results published in US11629171B2, “Beta-hairpin peptidomimetics” (POLYPHOR AG, priority 2017, dated 2023).
≈ marks a conversion by molar mass, not a printed value. Where a SMILES comes first, the peptide text is derived from it. Bridges are numbered along the chain shown (N, C = ends). Roman numbers before positions name the chains, in order. [ ]: non-standard residue; d: D form. Thr(ol) = C[C@@H](O)[C@H](N)CO; Pen = CC(C)(S)[C@H](N)C(=O)O; Tle = CC(C)(C)[C@H](N)C(=O)O; Hiv = CC(C)[C@H](O)C(=O)O; dDab = NCC[C@@H](N)C(=O)O; hSer = N[C@@H](CCO)C(=O)O; Orn = NCCC[C@H](N)C(=O)O; Dab = NCC[C@H](N)C(=O)O; Dap = NC[C@H](N)C(=O)O

Tests used:
Assay type in all cases: cell-based
[1] = system: Acinetobacter baumannii 872842; conditions: 872842
Procedure, shortened: (§1)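 CLSI broth microdilution in cation-adjusted Mueller-Hinton II broth with 0.002% polysorbate 80 (final), inoculum appr. 10^6 CFU/mL, peptides in serial two-fold dilutions. MIC (μg/mL) is the lowest concentration without visible growth after 18-20 h at 35° C.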

[2] = system: Acinetobacter baumannii DSM 30008; conditions: DSM 30008
Procedure, shortened: as §1

[3] = system: Enterobacter cloacae 848840; conditions: 848840
Procedure, shortened: as §1

Escherichia coli 926415 = conditions: 926415
Procedure, shortened: as §1

[4] = system: Escherichia coli ATCC 25922; conditions: ATCC 25922
Procedure, shortened: as §1

[5] = system: Klebsiella pneumoniae 968733; conditions: 968733
Procedure, shortened: as §1

[6] = system: Klebsiella pneumoniae SSI #3010; conditions: SSI #3010
Procedure, shortened: as §1

[7] = system: Pseudomonas aeruginosa ATCC 27853; conditions: ATCC 27853
Procedure, shortened: as §1

[8] = system: human red blood cells (hRBC); assay: Hemolysis; conditions: red cells of human, 1 h, 200
Procedure, shortened: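 Read-out is supernatant absorbance at 540 nm, normalised to full lysis by 2% Triton X-100 and zero lysis by PBS with 10% water. Peptides (200 μg/mL) were exposed to 20% v/v washed human erythrocytes at 37° C for 1 h under shaking.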

Structure (SMILES) | MIC [1] | MIC [2] | MIC [3] | MIC (Escherichia coli 926415) | MIC [4] | MIC [5] | MIC [6] | MIC [7] | Acinetobacter baumannii DSM 30008 MIC [2] | Escherichia coli ATCC 25922 MIC [4] | Klebsiella pneumoniae SSI #3010 MIC [6] | Pseudomonas aeruginosa ATCC 27853 MIC [7] | Hemolysis at 200 μg/mL [8]
CC(=O)N[C@@H](CCC(=O)O)C(=O)N[C@H](C(=O)N[C@H](C(=O)N[C@@H](Cc1ccc(O)cc1)C(=O)N[C@@H](CN)C(=O)N[C@@H](CCC(=O)N[C@@H](CCN)C(=O)N[C@H](C(=O)N[C@@H](CN)C(=O)N[C@H]1CCNC(=O)[C@H]([C@@H](C)O)NC(=O)[C@H](CCN)NC(=O)[C@H](CCN)NC(=O)[C@H](CC(C)C)NC(=O)[C@@H](CC(C)C)NC(=O)[C@H](CCN)NC1=O)[C@@H](C)O)C(=O)N[C@H](CCN)C(=O)N[C@@H](CCN)C(=O)N[C@@H](Cc1c[nH]c2ccccc12)C(=O)N[C@@H](CO)C(=O)N[C@H](C(=O)N[C@@H](C)C(=O)N[C@@H](CO)C(=O)N[C@@H](CCN)C(N)=O)C(C)(C)C)[C@@H](C)O)C(C)C [Ex. 247] (I: Ac-EVTY[Dap]E[dDab][Dab]WS[Tle]AS[Dab]-NH2 / II: [Dab]T[Dap][Dab][Dab][dL]L[Dab][Dab]T; amide I:6-II:N; lactam II:4-II:C) | 0.5 µg/mL (≈ 0.192 µM) | 0.125 µg/mL (≈ 0.0479 µM) | 0.25 µg/mL (≈ 0.0958 µM) | 0.5 µg/mL (≈ 0.192 µM) | 0.125 µg/mL (≈ 0.0479 µM) | 8 µg/mL (≈ 3.07 µM) | 0.25 µg/mL (≈ 0.0958 µM) | 0.25 µg/mL (≈ 0.0958 µM) | – | – | – | – | <1%
CC(=O)N[C@H](C(=O)N[C@H]1CCNC(=O)C[C@@H](C(=O)N[C@@H](CO)C(N)=O)NC(=O)[C@H](C(C)C)NC(=O)[C@H](CO)NC(=O)[C@H](Cc2c[nH]c3ccccc23)NC(=O)CNC(=O)[C@@H](CCN)NC(=O)[C@H](CCC(=O)N[C@@H](CCN)C(=O)N[C@H](C(=O)N[C@@H](CN)C(=O)N[C@H]2CCNC(=O)[C@H]([C@@H](C)O)NC(=O)[C@H](CCN)NC(=O)[C@H](CCN)NC(=O)[C@H](CC(C)C)NC(=O)[C@@H](CC(C)C)NC(=O)[C@H](CCN)NC2=O)[C@@H](C)O)NC(=O)[C@H](CN)NC(=O)[C@H](Cc2ccc(O)cc2)NC1=O)C(C)C [Ex. 346] (I: Ac-V[Dab]Y[Dap]E[dDab]GWSVDS-NH2 / II: [Dab]T[Dap][Dab][Dab][dL]L[Dab][Dab]T; lactam I:2-I:11, II:4-II:C; amide I:5-II:N) | 0.125 µg/mL (≈ 0.0532 µM) | – | 0.125 µg/mL (≈ 0.0532 µM) | 0.25 µg/mL (≈ 0.106 µM) | – | 0.5 µg/mL (≈ 0.213 µM) | – | – | 0.0625 µg/mL | 0.0625 µg/mL | 0.0625 µg/mL | 0.125 µg/mL | <1%
CC(=O)N[C@@H](CCN)C(=O)N[C@H](C(=O)N[C@H]1CSSC[C@@H](C(N)=O)NC(=O)[C@H](C(C)(C)C)NC(=O)[C@H](CO)NC(=O)[C@H](Cc2c[nH]c3ccccc23)NC(=O)[C@H](CO)NC(=O)[C@@H](CCN)NC(=O)[C@H](CCC(=O)N[C@@H](CCN)C(=O)N[C@H](C(=O)N[C@@H](CN)C(=O)N[C@H]2CCNC(=O)[C@H]([C@@H](C)O)NC(=O)[C@H](CCN)NC(=O)[C@H](CCN)NC(=O)[C@H](CC(C)C)NC(=O)[C@@H](CC(C)C)NC(=O)[C@H](CCN)NC2=O)[C@@H](C)O)NC(=O)[C@H](CN)NC(=O)[C@H](Cc2ccc(O)cc2)NC1=O)C(C)C [Ex. 125] (I: Ac-[Dab]VCY[Dap]E[dDab]SWS[Tle]C-NH2 / II: [Dab]T[Dap][Dab][Dab][dL]L[Dab][Dab]T; disulfide I:3-I:12; amide I:6-II:N; lactam II:4-II:C) | 0.125 µg/mL (≈ 0.0518 µM) | 0.125 µg/mL (≈ 0.0518 µM) | 0.125 µg/mL (≈ 0.0518 µM) | 0.0625 µg/mL (≈ 0.0259 µM) | 0.0625 µg/mL (≈ 0.0259 µM) | 0.125 µg/mL (≈ 0.0518 µM) | 0.0625 µg/mL (≈ 0.0259 µM) | 0.125 µg/mL (≈ 0.0518 µM) | – | – | – | – | 2%
CC(=O)N[C@H](C(=O)N[C@H]1CSSC[C@@H](C(=O)N[C@@H](CO)C(N)=O)NC(=O)[C@H](C(C)C)NC(=O)[C@H](Cc2c[nH]cn2)NC(=O)[C@H](Cc2c[nH]c3ccccc23)NC(=O)[C@H](CO)NC(=O)[C@@H](CCN)NC(=O)[C@H](CCC(=O)N[C@@H](CCN)C(=O)N[C@H](C(=O)N[C@@H](CN)C(=O)N[C@H]2CCNC(=O)[C@H]([C@@H](C)O)NC(=O)[C@H](CCN)NC(=O)[C@H](CCN)NC(=O)[C@H](CC(C)C)NC(=O)[C@@H](CC(C)C)NC(=O)[C@H](CCN)NC2=O)[C@@H](C)O)NC(=O)[C@H](CCN)NC(=O)[C@H](Cc2ccc(O)cc2)NC1=O)C(C)C [Ex. 329] (I: Ac-VCY[Dab]E[dDab]SWHVCS-NH2 / II: [Dab]T[Dap][Dab][Dab][dL]L[Dab][Dab]T; disulfide I:2-I:11; amide I:5-II:N; lactam II:4-II:C) | 0.125 µg/mL (≈ 0.051 µM) | – | 0.125 µg/mL (≈ 0.051 µM) | 0.125 µg/mL (≈ 0.051 µM) | – | 0.25 µg/mL (≈ 0.102 µM) | – | – | 0.0625 µg/mL | 0.0625 µg/mL | 0.125 µg/mL | 0.125 µg/mL | <1%

Second part, led by results:

MIC [1] | MIC [2] | MIC [3] | MIC (Escherichia coli 926415) | MIC [4] | MIC [5] | MIC [6] | MIC [7] | Acinetobacter baumannii DSM 30008 MIC [2] | Escherichia coli ATCC 25922 MIC [4] | Klebsiella pneumoniae SSI #3010 MIC [6] | Pseudomonas aeruginosa ATCC 27853 MIC [7] | Structure (SMILES) | Hemolysis at 200 μg/mL [8]
0.25 µg/mL (≈ 0.104 µM) | 0.0625 µg/mL (≈ 0.0259 µM) | 0.125 µg/mL (≈ 0.0518 µM) | 0.5 µg/mL (≈ 0.207 µM) | 0.0625 µg/mL (≈ 0.0259 µM) | 0.25 µg/mL (≈ 0.104 µM) | 0.0625 µg/mL (≈ 0.0259 µM) | 0.125 µg/mL (≈ 0.0518 µM) | – | – | – | – | CC(C)C[C@@H]1NC(=O)[C@@H](CC(C)C)NC(=O)[C@H](CCN)NC(=O)[C@@H](NC(=O)[C@H](CCN)NC(=O)[C@@H](NC(=O)[C@H](CCN)NC(=O)CC[C@@H]2NC(=O)[C@@H](NC(=O)[C@H](Cc3ccc(O)cc3)NC(=O)[C@@H](NC(=O)[C@@H](O)C(C)C)[C@@H](C)O)C(C)(C)SSC[C@@H](C(=O)N[C@H](C(=O)N[C@@H](C)C(=O)N[C@H](CO)[C@@H](C)O)C(C)(C)C)NC(=O)[C@H](Cc3c[nH]c4ccccc34)NC(=O)[C@H](CCO)NC(=O)[C@@H](CCN)NC2=O)[C@@H](C)O)CCNC(=O)[C@H]([C@@H](C)O)NC(=O)[C@H](CCN)NC(=O)[C@H](CCN)NC1=O [Ex. 194] (I: H-[Hiv]TY[Pen]E[dDab][hSer]WC[Tle]A[Thr(ol)] / II: [Dab]T[Dab][Dab][Dab][dL]L[Dab][Dab]T; disulfide I:4-I:9; amide I:5-II:N; lactam II:4-II:C) | <1%
0.25 µg/mL (≈ 0.104 µM) | 0.0625 µg/mL (≈ 0.0259 µM) | 0.125 µg/mL (≈ 0.0518 µM) | 0.125 µg/mL (≈ 0.0518 µM) | 0.0625 µg/mL (≈ 0.0259 µM) | 0.125 µg/mL (≈ 0.0518 µM) | 0.125 µg/mL (≈ 0.0518 µM) | 0.25 µg/mL (≈ 0.104 µM) | – | – | – | – | CC(C)C[C@@H]1NC(=O)[C@@H](CC(C)C)NC(=O)[C@H](CCN)NC(=O)[C@@H](NC(=O)[C@H](CCN)NC(=O)[C@@H](NC(=O)[C@H](CCN)NC(=O)CC[C@@H]2NC(=O)[C@H](CCN)NC(=O)[C@H](Cc3ccc(O)cc3)NC(=O)[C@@H](NC(=O)[C@@H](O)C(C)C)CSSC[C@@H](C(=O)N[C@H](CO)[C@@H](C)O)NC(=O)[C@H](C(C)(C)C)NC(=O)[C@H]([C@@H](C)O)NC(=O)[C@H](Cc3c[nH]c4ccccc34)NC(=O)[C@H](CCO)NC(=O)[C@@H](CCN)NC2=O)[C@@H](C)O)CCNC(=O)[C@H]([C@@H](C)O)NC(=O)[C@H](CCN)NC(=O)[C@H](CCN)NC1=O [Ex. 76] (I: H-[Hiv]CY[Dab]E[dDab][hSer]WT[Tle]C[Thr(ol)] / II: [Dab]T[Dab][Dab][Dab][dL]L[Dab][Dab]T; disulfide I:2-I:11; amide I:5-II:N; lactam II:4-II:C) | 1%
0.0625 µg/mL (≈ 0.0262 µM) | 0.03125 µg/mL (≈ 0.0131 µM) | 2 µg/mL (≈ 0.839 µM) | 0.25 µg/mL (≈ 0.105 µM) | 0.0625 µg/mL (≈ 0.0262 µM) | 0.25 µg/mL (≈ 0.105 µM) | 0.0625 µg/mL (≈ 0.0262 µM) | 0.125 µg/mL (≈ 0.0524 µM) | – | – | – | – | CC(C)C[C@@H]1NC(=O)[C@@H](CC(C)C)NC(=O)[C@H](CCN)NC(=O)[C@@H](NC(=O)[C@H](CN)NC(=O)[C@@H](NC(=O)[C@H](CCN)NC(=O)CC[C@@H]2NC(=O)[C@@H](CCN)NC(=O)[C@H](CCCN)NC(=O)[C@@H](NC(=O)[C@H](Cc3ccc(O)cc3)NC(=O)[C@@H](NC(=O)[C@@H](O)C(C)C)[C@@H](C)O)CSSC[C@@H](C(=O)N[C@H](C(=O)N[C@@H](C)C(=O)N[C@H](CO)[C@@H](C)O)C(C)(C)C)NC(=O)[C@H](Cc3c[nH]c4ccccc34)NC2=O)[C@@H](C)O)CCNC(=O)[C@H]([C@@H](C)O)NC(=O)[C@H](CCN)NC(=O)[C@H](CCN)NC1=O [Ex. 211] (I: H-[Hiv]TYC[Orn][dDab]EWC[Tle]A[Thr(ol)] / II: [Dab]T[Dap][Dab][Dab][dL]L[Dab][Dab]T; disulfide I:4-I:9; amide I:7-II:N; lactam II:4-II:C) | <1%
